These are literature values, as cited in patent US20090325155A1, “Aureobasin a synthetase” (priority 2005, published 2009).

The structures appear in SMILES notation. Starred links: 1 amine or outer side, 2 acyl side, 3 side chain; linkers in the order of their positions; H or OH if unused. Non-standard residues stand in square brackets, D forms with d. Residues, ends and D or L forms follow the SMILES beside them. ξ: configuration not given here. NMeVal(β-OH) = CN[C@H](C(=O)O)C(C)(C)O; X1 = CCC(C)[C@@H](O[*:1])C(=O)[*:2]; NMeF = CN[C@@H](Cc1ccccc1)C(=O)O; Ile(3ξ) = CCC(C)[C@H](N)C(=O)O; NMeV = CN[C@H](C(=O)O)C(C)C

Data set [1] has as its system a number of fungi, including yeasts, such as Saccharomyces cerevisiae and Schizosaccharomyces pombe. The conditions noted are these: low concentration toxic against a number of fungi.
In a further data set the test system is Aspergillus spp. Particulars: third major human pathogen.

Take `CCC(C)[C@@H]1NC(=O)[C@@H]2CCCN2C(=O)[C@H](Cc2ccccc2)N(C)C(=O)[C@H](Cc2ccccc2)NC(=O)[C@H](C(C)C)N(C)C(=O)[C@@H](C(C)CC)OC(=O)[C@H](C(C)(C)O)N(C)C(=O)[C@H](CC(C)C)NC(=O)[C@H](C(C)C)N(C)C1=O` (stereo partly drawn) [AbA, Aureobasidin A] (cyclo(F[NMeF]P[Ile(3ξ)][NMeV]L[NMeVal(β-OH)][X1][NMeV])): the “concentration at which toxic” value in data set [1] was 0.1 to 0.5 µg/mL. The “cidal to fungal pathogen” value with Candida spp and in the data set on Cryptococcus neoformans was “cidal” each time. In the data set with Aspergillus spp., the “toxicity to fungal pathogen” value is “not toxic”.
